{"source": "patent US8334238B2", "about": "“Multiparameter FACS assays to detect alterations in cellular parameters and to screen small molecule libraries” (Rigel, Inc., priority 1998, dated 2012)", "key": {"MC-9 cells [1]": {"system": "MC-9 cells", "experiment": "Exocytic light scatter changes on the flow cytometer", "assay_type": "cell-based", "method": "(§1) Experiments were carried out in modified tyrodes buffer (MD which consisted of NaCl (137 mM), KCl (2.7 mM), CaCl2 (1.8 mM), MgCl2 (1 mM), Glucose (5.6 mM), Hepes (20 mM, pH 7.4), and bovine serum albumin (0.1%). MC-9 cells were spun at 400×g and the media was aspirated. The cells were then washed with MT, respun/aspirated and taken up in MT at a density of 5×10^6 cells/ml. Cells were then treated with either DMSO or ionophore for 30 minutes (or the time was varied if a timecourse). The cells were then pelleted with the supernatant collected for enzymatic analysis; in some cases, the cells then processed for flow cytometry. All stimulations were carried out at 37° C. Stimulations of RBL-2H3 cells were carried out by washing the adherent cells one time in MT and then adding warmed MT (1 ml/10^6 cells) containing the stimulus. The cells were incubated at 37° C. for 30 minutes and the supernatant was harvested for further analysis. In some of the examples, (Examples 4-6), the plate bound cells were stained for annexin and then removed from the flask using No-Zyme (Collaborative Research, Inc.) for further processing for flow cytometry. For stimulation of RBL-2H3 cells with antigen crosslinking the cells were incubated overnight with IgE anti-DNP (Sigma Chemical Co.) in complete media at a concentration of 50 ng/ml. The following day they were washed one time in MT and stimulated as described above with the exception that bovine serum albumin coupled to DNP was used as the stimulus at 100 ng/ml.\n(§2) Cells processed for stimulation and staining were taken up in MT on ice and filtered through a 100 μm filter prior to cytometry. Cells were analyzed using a FACSCAN (Becton Dickinson Inc., laser line […]) or a Mo-Flo (Cytomation, Inc., laser lines 350 nM broadband (UV), 488 nm, and 647 nm) Cytometer. Cells were sorted, if desired using the Mo-Flo.\n(§3) The cells were prepared as described in Example 2, and light scatter properties were determined."}, "RBL-2H3 cells [2]": {"system": "RBL-2H3 cells", "experiment": "Exocytic light scatter changes on the flow cytometer", "assay_type": "cell-based", "conditions": "0.5 ug/ml, 0 and 10 minutes", "method": "as §1, §2, §3"}, "MC-9 cells [3]": {"system": "MC-9 cells", "experiment": "In situ enzymology (ELF-97 glucuronide, cell surface glucuronidase) by FACS", "assay_type": "cell-based", "conditions": "0.5 μg/ml vs DMSO", "method": "MC-9 cells were stimulated for exocytosis as described above and then incubated in enyme substrate buffer (BSA free MT, pH 4.3-7.4 range) containing the substrate ELF-97 Glucuronide (250 NM) for 15 minutes at 37° C. The cells were washed one time in MT and then viewed in the microscope or on the flowcytometer. Further methodologies are described in the preceding examples."}, "MC-9 cells [4]": {"system": "MC-9 cells", "experiment": "Propidium iodide staining (plasma membrane integrity) by FACS", "assay_type": "cell-based", "conditions": "2 μm vs DMSO", "method": "as §1, with “The following day they were washed one time in MT and stimulated as described above with the exception that bovine serum albumin coupled to DNP was used as the stimulus at 100 ng/ml.” left out"}, "MC-9 cells [5]": {"system": "MC-9 cells", "experiment": "Annexin-V staining exocytosis assay by FACS", "assay_type": "cell-based", "method": "as §1\nCells post exocytic stimulus were stained with annexin-PITC at a dilution of 1/100 in MT for 10 minutes at room temperature. The cells were then washed one time in MT, taken up in MT and viewed in the flow cytometer or microscope. For indirect labeling, annexin-biotin was added to the MT during the stimulation procedure at a dilution of 1/200. The cells were then pelleted in ice cold MT, spun, aspirated, and taken up in ice cold MT with streptavidin-APC at a dilution of 1/200 and kept on ice for 15 minutes. […]"}, "MC-9 cells [6]": {"system": "MC-9 cells", "experiment": "Styryl dye (FM 1-43 / FM 4-64) uptake exocytosis assay by FACS", "assay_type": "cell-based", "conditions": "2 μM vs DMSO", "method": "as §1, with “For stimulation of RBL-2H3 cells with antigen crosslinking the cells were incubated overnight with IgE anti-DNP (Sigma Chemical Co.) in complete media at a concentration of 50 ng/ml. The following day they were washed one time in MT and stimulated as described above with the exception that bovine serum albumin coupled to DNP was used as the stimulus at 100 ng/ml.” left out\nThe cells were prepared as described above. […] The cells were then ready for analysis in the flow cytometer (see Example 2)."}, "MC-9 cells [7]": {"system": "MC-9 cells", "experiment": "Lysotracker green release from granules by FACS", "assay_type": "cell-based", "method": "Lysotracker dyes (blue, green, and red) were loaded into cells by diluting them to a final concentration of 1 μM in complete media and incubating the cells for 60 minutes at 37° C. in their presence. After loading, the cells were washed two times in MT and then were ready for further analysis or stimulation. Further methodologies are described in the preceding examples."}, "MC-9 cells [8]": {"system": "MC-9 cells", "experiment": "Population based exocytic enzyme activity assay on cell supernatant", "conditions": "2 μm, 30 minutes, vs DMSO", "method": "(§4) Experiments were carried out in modified tyrodes buffer (MD which consisted of NaCl (137 mM), KCl (2.7 mM), CaCl2 (1.8 mM), MgCl2 (1 mM), Glucose (5.6 mM), Hepes (20 mM, pH 7.4), and bovine serum albumin (0.1%). MC-9 cells were spun at 400×g and the media was aspirated. The cells were then washed with MT, respun/aspirated and taken up in MT at a density of 5×10^6 cells/ml. Cells were then treated with either DMSO or ionophore for 30 minutes (or the time was varied if a timecourse). The cells were then pelleted with the supernatant collected for enzymatic analysis; in some cases, the cells then processed for flow cytometry. All stimulations were carried out at 37° C. Stimulations of RBL-2H3 cells were carried out by washing the adherent cells one time in MT and then adding warmed MT (1 ml/10^6 cells) containing the stimulus. The cells were incubated at 37° C. for 30 minutes and the supernatant was harvested for further analysis. […]\n(§5) Enzyme assays were carried out on cell supernatants and pellets following exocytic stimulation. […] The plate was read on a fluorescence plate reader (Wallac, Inc.) using excitation 380 nm/emission 440 nm filters every 3 minutes for five times to obtain an enzymatic rate; analyses were carried out in triplicate."}, "RBL-2H3 cells [9]": {"system": "RBL-2H3 cells", "experiment": "Population based exocytic enzyme activity assay on cell supernatant, antigen crosslinking", "conditions": "RBL-2H3 sensitized 16 hours with varying IgE anti-DNP, stimulated with increasing BSA-DNP", "method": "as §4, §5"}, "RBL-2H3 cells [10]": {"system": "RBL-2H3 cells", "experiment": "Annexin-V-FITC staining of exocytic granules, antigen crosslinking, microscopy", "assay_type": "cell-based", "conditions": "IgE-sensitized RBL-2H3 cells, 100 ng/ml vs MT buffer only", "method": "as §4, with “analysis. In some of the examples, (Examples 4-6), the plate bound cells were stained for annexin and then removed from the flask using No-Zyme (Collaborative Research, Inc.) for further processing for flow cytometry.” for “analysis.”\nCells post stimulation or staining were mounted onto glass slides and coverslipped; these were directly visualized by brighffield and fluorescence microscopy on an inverted microscope (TE300, Nikon) using standard BFP, FITC, or TRITC filter sets. […]"}, "[11]": {"conditions": "MC-9 cells, 0, 1, 2, 3 μM, four-parameter analysis"}}}
{"compound": "CNc1ccc2oc(C[C@H]3O[C@@]4(CC[C@H]3C)O[C@H]([C@H](C)C(=O)c3ccc[nH]3)[C@H](C)C[C@H]4C)nc2c1C(=O)O", "note": "[A23187]", "values": [{"measurement": "light scatter changes (side scatter vs. forward scatter)", "setting": "MC-9 cells [1]; MC-9 cells, 0.5 ug/ml, 0, 5 and 30 minutes", "value": "Time dependent scatter changes are evident"}, {"measurement": "light scatter changes (side scatter vs. forward scatter)", "setting": "RBL-2H3 cells [2]", "value": "Time dependent scatter changes are evident"}, {"measurement": "ELF-97 signal (cell surface enzymatic precipitate, in situ glucuronidase activity)", "setting": "MC-9 cells [3]", "value": "significant increase in signal"}]}
{"compound": "C[C@H](CCC(=O)O)C[C@H](C)C[C@H](C)C(=O)/C=C(\\O)[C@H](C)C[C@H](C)C/C=C/[C@@H](C)[C@@H](O)[C@@H](C)[C@@H](O)C[C@@H]1CC[C@@](C)([C@H]2CC[C@@](C)([C@@H](C)O)O2)O1", "note": "[ionomycin]", "values": [{"measurement": "PI staining", "setting": "MC-9 cells [4]", "value": "no significant increase"}, {"measurement": "forward scatter", "setting": "MC-9 cells [1]; [11]", "value": "increases"}, {"measurement": "side scatter", "setting": "MC-9 cells [1]; [11]", "value": "decreases"}, {"measurement": "forward and side scatter", "setting": "MC-9 cells [1]; MC-9 cells, 2 μM vs DMSO, 30 minute timepoint, data not shown", "value": "stimulation dependent changes in both parameters"}, {"measurement": "annexin-V-APC signal", "setting": "MC-9 cells [5]; [11]", "value": "becomes greater"}, {"measurement": "annexin-V-APC signal", "setting": "MC-9 cells [5]; MC-9 cells, 2 μM vs DMSO, four-parameter analysis with FM 1-43, data not shown", "value": "stimulation dependent increases in both signals"}, {"measurement": "annexin-V-FITC binding", "setting": "MC-9 cells [5]; MC-9 cells, 2 μm vs DMSO", "value": "significant increase"}, {"measurement": "styryl dye fluorescence intensity (FM 4-64 and FM 1-43)", "setting": "MC-9 cells [6]; channels 1 and 3", "value": "clear stimulation dependent increase"}, {"measurement": "FM 1-43 signal", "setting": "MC-9 cells [6]; four-parameter analysis, data not shown", "value": "stimulation dependent increases in both signals"}, {"measurement": "Lysotracker green fluorescence intensity, channel 1", "setting": "MC-9 cells [7]; MC-9 cells loaded 1 hour, 2 μM vs DMSO", "value": "significant loss of signal"}, {"measurement": "Lysotracker green signal", "setting": "MC-9 cells [7]; [11]", "value": "decreases"}, {"measurement": "glucuronidase or hexosaminidase activity in the supernatant", "setting": "MC-9 cells [8]", "value": "Stimulated release of granule enzymatic activity is evident"}]}
{"compound": "BSA-DNP: bovine serum albumin coupled to DNP, antigen used as the stimulus", "values": [{"measurement": "supernatant hexosaminidase activity", "setting": "RBL-2H3 cells [9]", "value": "dose response"}, {"measurement": "annexin-V-FITC staining of cell surface granules", "setting": "RBL-2H3 cells [10]", "value": "Numerous cell surface granules are stained"}]}
